According to patent US9186369B2, “Purine nucleoside analogues for treating flaviviridae including hepatitis C” (Idenix Pharmaceuticals, Inc., priority 2003, dated 2015):

Test system: MDK
Assay: Cytotoxicity assay (sulforhodamine staining, CC50)
Type: cell-based
Details: MDK cells; 4 days incubation; concentration reducing cell number by 50%; preliminary results
Experimental: Cells are seeded at a rate of between 5×10^3 and 5×10^4/well into 96-well plates in growth medium overnight at 37° C. in a humidified CO2 (5%) atmosphere. New growth medium containing serial dilutions of the drugs is then added. After incubation for 4 days, cultures are fixed in 50% TCA and stained with sulforhodamine. The optical density was read at 550 nm. The cytotoxic concentration was expressed as the concentration required to reduce the cell number by 50% (CC50).

SMILES | CC50
C[C@]1(CO)O[C@@H](n2ccc(=S)[nH]c2=O)[C@H](O)[C@@H]1O [β-D-4′-CH3-ribo-4-thioU] | > 250 µM
CC1(CO)OC(n2cc(F)c(=O)[nH]c2=O)C(O)C1O [β-D-4′-CH3-ribo-5-fluoroU] | > 167 µM
C[C@]1(CO)O[C@@H](n2cnc3c(N)ncnc32)[C@H](O)[C@@H]1O [β-D-4′-CH3-riboA] | > 250 µM
C[C@]1(CO)O[C@@H](n2ccc(N)nc2=O)[C@H](O)[C@@H]1O [β-D-4′-CH3-riboC] | > 250 µM
C[C@]1(CO)O[C@@H](n2cnc3c(=O)[nH]c(N)nc32)[C@H](O)[C@@H]1O [β-D-4′-CH3-riboG] | > 250 µM
Cc1cn([C@@H]2O[C@](C)(CO)[C@@H](O)[C@H]2O)c(=O)[nH]c1=O [β-D-4′-CH3-riboT] | > 250 µM
